Test results published in PMC10866072, “Design, synthesis, molecular modelling and biological evaluation of novel 6-amino-5-cyano-2-thiopyrimidine derivatives as potent anticancer agents against leukemia and apoptotic inducers” (Journal of Enzyme Inhibition and Medicinal Chemistry, 2024).

Assays:
[1] = tested on: SNB-19; format: cell-based; settings: Homo sapiens, one dose 10^-5 M, 48 h, read-out: % growth
[2] = tested on: HOP-62; format: cell-based; settings: Homo sapiens, one dose 10^-5 M, 48 h
[3] = tested on: RPMI-8226; format: cell-based; settings: Homo sapiens, one dose 10^-5 M, 48 h
[4] = tested on: UO-31; format: cell-based; settings: Homo sapiens, UO-31, 48 h, one dose 10^-5 M, 48 h
[5] = tested on: SF-295; format: cell-based; settings: Homo sapiens, one dose 10^-5 M, 48 h
[6] = tested on: MDA-MB-468; format: cell-based; settings: Homo sapiens, one dose 10^-5 M, 48 h
[7] = tested on: DU-145; format: cell-based; settings: Homo sapiens, one dose 10^-5 M, 48 h
[8] = tested on: COLO 205; format: cell-based; settings: Homo sapiens, one dose 10^-5 M, 48 h
[9] = tested on: OVCAR-8; format: cell-based; settings: Homo sapiens, one dose 10^-5 M, 48 h
[10] = tested on: SK-OV-3; format: cell-based; settings: Homo sapiens, one dose 10^-5 M, 48 h
[11] = tested on: BT-549; format: cell-based; settings: Homo sapiens, one dose 10^-5 M, 48 h
[12] = tested on: HCC-2998; format: cell-based; settings: Homo sapiens, one dose 10^-5 M, 48 h
[13] = tested on: KM12; format: cell-based; settings: Homo sapiens, one dose 10^-5 M, 48 h
[14] = tested on: SR; format: cell-based; settings: Homo sapiens, one dose 10^-5 M, 48 h
[15] = tested on: A549/ATCC; format: cell-based; settings: Homo sapiens, one dose 10^-5 M, 48 h
[16] = tested on: UACC-62; format: cell-based; settings: Homo sapiens, one dose 10^-5 M, 48 h
[17] = tested on: SF-268; format: cell-based; settings: Homo sapiens, one dose 10^-5 M, 48 h, read-out: % growth
[18] = tested on: OVCAR-5; format: cell-based; settings: Homo sapiens, one dose 10^-5 M, 48 h
[19] = tested on: full NCI 60 cell lines panel; settings: for activity at 10 µM: Homo sapiens, 60 cell, 48 h, read-out: Mean % growth
[20] = tested on: NCI-H460; format: cell-based; settings: Homo sapiens, one dose 10^-5 M, 48 h, read-out: % growth
[21] = tested on: SF-539; format: cell-based; settings: Homo sapiens, one dose 10^-5 M, 48 h
[22] = tested on: MCF7; format: cell-based; settings: Homo sapiens, one dose 10^-5 M, 48 h, read-out: % growth
[23] = tested on: HCT-116; format: cell-based; settings: Homo sapiens, one dose 10^-5 M, 48 h, read-out: % growth
[24] = tested on: HL-60(TB); format: cell-based; settings: Homo sapiens, one dose 10^-5 M, 48 h
[25] = tested on: SK-MEL-5; format: cell-based; settings: Homo sapiens, one dose 10^-5 M, 48 h, read-out: % growth
[26] = tested on: SK-MEL-28; format: cell-based; settings: Homo sapiens, one dose 10^-5 M, 48 h
[27] = tested on: NCI-H226; format: cell-based; settings: Homo sapiens, one dose 10^-5 M, 48 h
[28] = tested on: SW-620; format: cell-based; settings: Homo sapiens, one dose 10^-5 M, 48 h
[29] = tested on: 786-0; format: cell-based; settings: Homo sapiens, one dose 10^-5 M, 48 h
[30] = tested on: PC-3; format: cell-based; settings: Homo sapiens, one dose 10^-5 M, 48 h
[31] = tested on: MALME-3M; format: cell-based; settings: Homo sapiens, one dose 10^-5 M, 48 h
[32] = tested on: HOP-92; format: cell-based; settings: Homo sapiens, one dose 10^-5 M, 48 h
[33] = tested on: NCI-H23; format: cell-based; settings: Homo sapiens, one dose 10^-5 M, 48 h, read-out: % growth
[34] = tested on: HT29; format: cell-based; settings: Homo sapiens, HT-29, one dose 10^-5 M, 48 h
[35] = tested on: M14; format: cell-based; settings: Homo sapiens, one dose 10^-5 M, 48 h
[36] = tested on: A498; format: cell-based; settings: Homo sapiens, one dose 10^-5 M, 48 h
[37] = tested on: NCI-H522; format: cell-based; settings: Homo sapiens, one dose 10^-5 M, 48 h
[38] = tested on: UACC-257; format: cell-based; settings: Homo sapiens, one dose 10^-5 M, 48 h
[39] = tested on: SN12C; format: cell-based, human; settings: Homo sapiens, one dose 10^-5 M, 48 h
[40] = tested on: K-562; format: cell-based; settings: Homo sapiens, K562, one dose 10^-5 M, 48 h
[41] = tested on: MDA-MB-435; format: cell-based; settings: Homo sapiens, one dose 10^-5 M, 48 h, read-out: % growth
[42] = tested on: MOLT-4; format: cell-based; settings: Homo sapiens, one dose 10^-5 M, 48 h, read-out: % growth
[43] = tested on: CCRF-CEM; format: cell-based; settings: Homo sapiens, one dose 10^-5 M, 48 h
[44] = tested on: IGROV1; format: cell-based; settings: Homo sapiens, IGROV-1, one dose 10^-5 M, 48 h, read-out: % growth
[45] = tested on: EKVX; format: cell-based; settings: Homo sapiens, one dose 10^-5 M, 48 h
[46] = tested on: OVCAR-4; format: cell-based; settings: Homo sapiens, one dose 10^-5 M, 48 h
[47] = tested on: T-47D; format: cell-based; settings: Homo sapiens, T47D, one dose 10^-5 M, 48 h, read-out: % growth
[48] = tested on: U251; format: cell-based; settings: Homo sapiens, U-251, one dose 10^-5 M, 48 h
[49] = tested on: MDA-MB-231/ATCC; format: cell-based; settings: Homo sapiens, one dose 10^-5 M, 48 h
[50] = tested on: RXF 393; format: cell-based; settings: Homo sapiens, RXF 393, 48 h, one dose 10^-5 M, 48 h, read-out: % growth
[51] = tested on: LOX IMVI; format: cell-based; settings: Homo sapiens, one dose 10^-5 M, 48 h, read-out: % growth
[52] = tested on: NCI/ADR-RES; format: cell-based; settings: Homo sapiens, one dose 10^-5 M, 48 h
[53] = tested on: SK-MEL-2; format: cell-based; settings: Homo sapiens, one dose 10^-5 M, 48 h
[54] = tested on: CAKI-1; format: cell-based; settings: Homo sapiens, CAKI-1, 48 h, one dose 10^-5 M, 48 h
[55] = tested on: HS 578T; format: cell-based; settings: Homo sapiens; one dose 10^-5 M, 48 h; HS 578T; read-out: % growth
[56] = tested on: ACHN; format: cell-based; settings: Homo sapiens, one dose 10^-5 M, 48 h
[57] = tested on: OVCAR-3; format: cell-based; settings: Homo sapiens, one dose 10^-5 M, 48 h
[58] = tested on: HCT-15; format: cell-based; settings: Homo sapiens, one dose 10^-5 M, 48 h, read-out: % growth
[59] = tested on: TK-10; format: cell-based; settings: Homo sapiens, one dose 10^-5 M, 48 h

Compound: COc1ccc(C=NNC(=N)c2c(N)nc(S)nc2-c2ccc(Cl)cc2Cl)cc1 [Compound 4p, 4-amino-6–(2,4-dichlorophenyl)-2-mercapto-N'-[(4-methoxyphenyl)methylene] pyrimidine-5-carboximidohydrazide]
- activity at 10 µM [1]: 93%
- % growth at 10 µM [2]: 90.2%
- % growth at 10 µM [3]: 99.4%
- % cell growth at 10 µM [4]: 97.7%
- % cell growth at 10 µM [5]: 85.8%
- percent cell growth at 10 µM [6]: 105%
- % growth at 10 µM [7]: 110%
- % growth at 10 µM [8]: 127%
- % growth of cells at 10 µM [9]: 103%
- % growth at 10 µM [10]: 108%
- % cell growth at 10 µM [11]: 95.6%
- % growth at 10 µM [12]: 118%
- % growth at 10 µM [13]: 104%
- percent cell growth at 10 µM [14]: 97.5%
- % growth at 10 µM [15]: 102%
- % growth at 10 µM [16]: 97.2%
- activity at 10 µM [17]: 104%
- percent cell growth at 10 µM [18]: 117%
- activity at 10 µM [19]: 104%
- activity on all 60 cancer cell lines tested (in words) ([19]; one dose): weak activity
- activity at 10 µM [20]: 113%
- % growth at 10 µM [21]: 96.8%
- activity at 10 µM [22]: 91.5%
- activity at 10 µM [23]: 99.8%
- % growth at 10 µM [24]: 96.9%
- activity at 10 µM [25]: 105%
- % cell growth at 10 µM [26]: 112%
- % growth at 10 µM [27]: 97.2%
- % growth at 10 µM [28]: 105%
- % growth at 10 µM [29]: 90.2%
- percent cell growth at 10 µM [30]: 98.9%
- % growth at 10 µM [31]: 89.4%
- % growth at 10 µM [32]: 74.8%
- activity at 10 µM [33]: 100%
- % growth at 10 µM [34]: 106%
- % growth at 10 µM [35]: 107%
- % growth at 10 µM [36]: 138%
- % growth at 10 µM [37]: 97.5%
- percent cell growth at 10 µM [38]: 103%
- % growth at 10 µM [39]: 108%
- % growth at 10 µM [40]: 102%
- activity at 10 µM [41]: 113%
- activity at 10 µM [42]: 95.7%
- % cell growth at 10 µM [43]: 99.1%
- activity at 10 µM [44]: 108%
- % cell growth at 10 µM [45]: 108%
- % growth at 10 µM [46]: 122%
- activity at 10 µM [47]: 100%
- % growth at 10 µM [48]: 103%
- % growth at 10 µM [49]: 90.5%
- activity at 10 µM [50]: 94.5%
- activity at 10 µM [51]: 103%
- cell growth percent at 10 µM [52]: 114%
- % growth at 10 µM [53]: 115%
- % growth at 10 µM [54]: 97.3%
- activity at 10 µM [55]: 105%
- % growth at 10 µM [56]: 110%
- % growth at 10 µM [57]: 113%
- activity at 10 µM [58]: 106%
- % cell growth at 10 µM [59]: 143%

Compound: N=C(NN=Cc1ccc([N+](=O)[O-])cc1)c1c(N)nc(S)nc1-c1ccc(Cl)cc1Cl [Compound 4o, 4-amino-6–(2,4-dichlorophenyl)-2-mercapto-N'-[(4-nitrophenyl)methylene] pyrimidine-5-carboximidohydrazide]
- activity at 10 µM [1]: 74.9%
- % growth at 10 µM [2]: 57%
- % growth at 10 µM [3]: 97.3%
- % cell growth at 10 µM [4]: 98.3%
- % cell growth at 10 µM [5]: 52.4%
- percent cell growth at 10 µM [6]: 90.8%
- % growth at 10 µM [7]: 115%
- % growth at 10 µM [8]: 115%
- % growth of cells at 10 µM [9]: 98.4%
- % growth at 10 µM [10]: 89.1%
- % cell growth at 10 µM [11]: 75.7%
- % growth at 10 µM [12]: 106%
- % growth at 10 µM [13]: 108%
- percent cell growth at 10 µM [14]: 76.8%
- % growth at 10 µM [15]: 101%
- % growth at 10 µM [16]: 84.7%
- activity at 10 µM [17]: 94.9%
- percent cell growth at 10 µM [18]: 111%
- activity at 10 µM [19]: 93.5%
- activity at 10 µM [20]: 114%
- % growth at 10 µM [21]: 74.7%
- activity at 10 µM [22]: 88.2%
- activity at 10 µM [23]: 85.2%
- % growth at 10 µM [24]: 103%
- activity at 10 µM [25]: 104%
- % cell growth at 10 µM [26]: 113%
- % growth at 10 µM [27]: 82.1%
- % growth at 10 µM [28]: 108%
- % growth at 10 µM [29]: 54.1%
- percent cell growth at 10 µM [30]: 96.8%
- % growth at 10 µM [31]: 73%
- % growth at 10 µM [32]: 2.04%
- activity at 10 µM [33]: 90.2%
- % growth at 10 µM [34]: 116%
- % growth at 10 µM [35]: 102%
- % growth at 10 µM [36]: 160%
- % growth at 10 µM [37]: 78.5%
- percent cell growth at 10 µM [38]: 104%
- % growth at 10 µM [39]: 96.1%
- % growth at 10 µM [40]: 95%
- activity at 10 µM [41]: 108%
- activity at 10 µM [42]: 94%
- % cell growth at 10 µM [43]: 106%
- activity at 10 µM [44]: 94.9%
- % cell growth at 10 µM [45]: 98.9%
- % growth at 10 µM [46]: 111%
- activity at 10 µM [47]: 95.3%
- % growth at 10 µM [48]: 67%
- % growth at 10 µM [49]: 77.5%
- activity at 10 µM [50]: 73%
- activity at 10 µM [51]: 96.5%
- cell growth percent at 10 µM [52]: 105%
- % growth at 10 µM [53]: 93.4%
- % growth at 10 µM [54]: 78.8%
- activity at 10 µM [55]: 87.1%
- % growth at 10 µM [56]: 88.8%
- % growth at 10 µM [57]: 110%
- activity at 10 µM [58]: 103%
- % cell growth at 10 µM [59]: 142%
